Data on 51 compounds can be found in ChEMBL document CHEMBL1201862, “PubChem BioAssay data set” (2004).

Activity calls are given as the source filed them.

A short description of series [1]: Luminescence Cell-Based Dose Response HTS to Identify Inhibitors of 5'UTR Stem-Loop Driven Prion Protein mRNA Translation in H4 Neuroglioblastoma Cells. [Related pubchem assays: 1827 (Project Summary), 1813 (Primary HTS)]. In kind it is functional.
The nature of series [2]: alpha-synuclein stem-loop luciferase translation blockers – H4 neuroglioma cells, luminescence, confirmation (AID 1988). It is filed as functional, cell-based.
The target in series [3] is T1, Heat shock factor protein 1 (Mus musculus, UniProt P38532).
T1 sequence (P38532 whole entry): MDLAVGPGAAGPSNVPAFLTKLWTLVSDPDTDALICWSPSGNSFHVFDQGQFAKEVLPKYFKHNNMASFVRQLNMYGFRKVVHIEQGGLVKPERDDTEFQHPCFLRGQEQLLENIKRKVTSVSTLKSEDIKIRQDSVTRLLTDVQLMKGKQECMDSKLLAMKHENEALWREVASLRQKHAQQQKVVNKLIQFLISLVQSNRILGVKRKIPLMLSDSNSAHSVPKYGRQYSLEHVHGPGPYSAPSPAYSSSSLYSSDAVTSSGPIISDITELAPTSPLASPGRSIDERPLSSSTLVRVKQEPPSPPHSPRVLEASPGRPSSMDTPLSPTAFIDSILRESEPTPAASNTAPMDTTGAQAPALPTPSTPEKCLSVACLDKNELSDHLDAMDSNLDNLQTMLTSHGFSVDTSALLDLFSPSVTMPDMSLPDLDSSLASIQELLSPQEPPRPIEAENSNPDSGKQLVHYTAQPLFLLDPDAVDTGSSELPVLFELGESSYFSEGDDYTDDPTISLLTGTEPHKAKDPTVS
The series is described as follows: enhancement of HSF1-driven luciferase signal – cell-based, NIH3T3, luminescence, dose retest, confirmation (AID 435004).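 Also: stress induced by proteasome inhibitor MG132 added 30 min after compound; luciferase reporter driven by HSF1 response element in NIH3T3 cells; actives raise luminescence as potentiators of the MG132 stress response.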 It is filed as functional.

For series [4], the target named is Cytochrome P450 2C19 (Homo sapiens, UniProt P33261). The series is described as follows: Cytochrome panel assay with activity outcomes. Panel member name: p450-cyp2c19 Compounds with AC50 equal or less than 10 uM are considered active. In kind it is functional.
Chain of Cytochrome P450 2C19 (P33261 whole entry): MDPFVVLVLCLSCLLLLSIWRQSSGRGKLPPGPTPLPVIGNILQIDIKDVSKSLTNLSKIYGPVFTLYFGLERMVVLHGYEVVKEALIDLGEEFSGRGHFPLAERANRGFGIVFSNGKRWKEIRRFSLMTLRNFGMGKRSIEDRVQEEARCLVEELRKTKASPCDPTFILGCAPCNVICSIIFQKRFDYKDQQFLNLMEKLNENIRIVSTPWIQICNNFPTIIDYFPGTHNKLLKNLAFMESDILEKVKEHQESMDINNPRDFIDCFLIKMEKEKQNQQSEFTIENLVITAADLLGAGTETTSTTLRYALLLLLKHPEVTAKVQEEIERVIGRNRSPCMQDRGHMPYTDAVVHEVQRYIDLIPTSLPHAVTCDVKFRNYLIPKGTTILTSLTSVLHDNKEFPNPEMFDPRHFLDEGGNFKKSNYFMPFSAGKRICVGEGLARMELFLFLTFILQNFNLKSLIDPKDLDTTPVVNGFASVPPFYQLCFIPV
The target in series [5] is Cytochrome P450 2C9 (Homo sapiens, UniProt P11712).
Chain of Cytochrome P450 2C9 (P11712 whole entry): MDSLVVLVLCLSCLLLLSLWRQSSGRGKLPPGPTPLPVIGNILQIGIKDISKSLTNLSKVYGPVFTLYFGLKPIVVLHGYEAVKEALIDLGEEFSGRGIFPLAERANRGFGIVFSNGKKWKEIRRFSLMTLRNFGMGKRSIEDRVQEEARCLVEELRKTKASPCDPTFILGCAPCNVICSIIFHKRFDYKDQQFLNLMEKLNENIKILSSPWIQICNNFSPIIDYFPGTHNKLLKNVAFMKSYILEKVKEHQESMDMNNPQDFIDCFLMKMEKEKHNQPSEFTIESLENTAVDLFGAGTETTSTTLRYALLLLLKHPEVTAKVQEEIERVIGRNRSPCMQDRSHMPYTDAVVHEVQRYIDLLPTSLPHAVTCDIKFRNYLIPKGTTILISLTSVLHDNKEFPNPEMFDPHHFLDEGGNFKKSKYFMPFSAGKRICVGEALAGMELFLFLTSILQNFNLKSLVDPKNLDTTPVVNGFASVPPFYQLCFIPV
Series [6] is described as follows: viability of uninfected HEp-2 cells – cell-based, HTS, cytotoxicity control for RSV inhibitor project, dose response (AID 2410). In kind it is functional. The following applies: human respiratory syncytial virus.
For series [7], the system named is Streptococcus sp. 'group A'. Kind of series: Streptococcus pyogenes SK(-)GAS viability under kanamycin – luminescence, BacTiterGlo, confirmation, counter-screen for streptokinase expression inhibitor project, dose response (AID 1900). It is filed as functional, organism-based. For orientation: The purpose of a counterscreen is to sort out artefacts and off-target activity.

For series [8], the target named is T2, Streptokinase A (Streptococcus pyogenes serotype M1, UniProt P10520).
T2 sequence (P10520 whole entry): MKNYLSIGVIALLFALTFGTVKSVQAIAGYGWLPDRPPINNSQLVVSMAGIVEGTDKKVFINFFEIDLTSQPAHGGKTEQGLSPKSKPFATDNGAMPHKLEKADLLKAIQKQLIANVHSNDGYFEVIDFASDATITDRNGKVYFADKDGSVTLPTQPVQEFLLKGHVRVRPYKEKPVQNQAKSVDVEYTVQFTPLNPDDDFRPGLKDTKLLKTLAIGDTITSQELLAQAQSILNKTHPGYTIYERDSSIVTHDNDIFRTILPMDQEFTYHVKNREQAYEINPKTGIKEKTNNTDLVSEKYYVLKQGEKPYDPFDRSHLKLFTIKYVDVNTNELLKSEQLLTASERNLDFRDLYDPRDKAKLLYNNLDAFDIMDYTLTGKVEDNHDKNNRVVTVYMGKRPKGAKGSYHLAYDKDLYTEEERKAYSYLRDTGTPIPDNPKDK
Kind of series: viability-normalized secreted streptokinase activity reduction – plasminogen activation absorbance, OD405, dose response (AID 1914).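 Also: secreted streptokinase activity via plasminogen activation per viability signal from cell pellet.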 In kind it is functional, Streptococcus pyogenes M1 GAS.

Series [9] concerns Streptococcus. Kind of series: GAS UMAA2166 growth inhibition – luminescence, BacTiterGlo, counter-screen for streptokinase expression inhibitor project, dose response (AID 1915).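 Also: potency for reduction of bacterial viability or growth.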 In kind it is functional, organism-based.
Series [10] relates to H4. Kind of series: Luminescence Cell-Based Dose Response HTS to Identify Activators of 5'UTR Stem-Loop Driven Prion Protein mRNA Translation in H4 Neuroglioblastoma Cells. [Related pubchem assays: 1829 (Project Summary), 1814 (Primary HTS)]. In kind it is functional. The following applies: Homo sapiens.
Series [11] is described as follows: Luminescence Cell-Based Dose Retest to Confirm Inhibitors of Cancer Stem Cells. [Related pubchem assays (depositor defined):AID2717, AID2721]. The following applies: Homo sapiens. In kind it is functional.

On to `COc1ccc(/C=C2\SC(=S)N(CCC(=O)NC3C=CS(=O)(=O)C3)C2=O)cc1` (stereo not given), for which the values for the EC50 in series [1] and in [2] were 15.7 µM (active) and 13.4 µM (active), respectively. Regarding `Cc1ccc(NC(=O)COC(=O)/C=C/c2ccc(Br)o2)cc1S(=O)(=O)N(C)C`, in [3], the EC50 is > 260 µM (inactive).

On to `CCOc1ccc(C(C)=O)cc1N1C(=O)C2C(C1=O)C1C=CC2C12CC2` (stereo not given), for which the AC50 in series [4] (read-out: AC50) is 17.8 µM (inconclusive); in series [5], 14.1 µM (inconclusive). Consider `COc1ccc(C2NC(S)=NC3=C2CCc2cc(OC)ccc23)cc1` (stereo not given), for which the CC50 in series [6] is 26.4 µM (active). For the compound `CCOc1nc(NCCc2ccc(OC)c(OC)c2)nc(NC(C)(C)CO)n1`, in series [5], the AC50 is 31.6 µM (inconclusive). Regarding `O=c1c2ccccc2nc(SCc2cn3ccsc3n2)n1-c1ccccc1`, the EC50 in series [3] is > 260 µM (inactive). Take `COc1ccc(Nc2nc(-c3ccccc3)nc3ccccc23)cc1`: the CC50 in series [6] was 13.1 µM (active). Take `O=C(O)[C@H]1[C@H]2c3ccccc3[C@H](c3ccccc32)[C@@H]1C(=O)NCC1CC1`: the AC50 in series [4] (read-out: AC50) was 3.98 µM (inconclusive). With `Cn1c(-c2ccc(Br)cc2)cnc1NCc1cccnc1`, the figures for the AC50 in series [4] (read-out: AC50) and in series [5] were 17.8 µM (inconclusive) and 15.8 µM (inconclusive), respectively.

Consider `O=C(Nc1cccnc1)C1COc2ccccc2O1` (stereo not given), for which the AC50 in series [5] is 5.01 µM (inconclusive). Regarding `COc1cccc(C(=O)c2c(C)c(CCC#N)n3ccccc23)c1OC`, the EC50 in series [3] was > 260 µM (inactive). `CCc1nn(C(C)C(=O)NC(C)CCc2ccco2)c(=O)c2cc3occc3n12` (stereo not given): the 50% cytotoxic concentration (CC50) in series [6] is > 50 µM (active). Also, the EC50 in [3] is > 260 µM (inactive). For `S=c1[nH]cc(Cc2ccccc2)s1`, the EC50 in [3] is > 260 µM (inactive).

In the case of `O=C(/C=C/c1ccccc1)NC(=S)NNC(=O)Cc1cccs1`, the EC50 in series [7] was 1.39 µM (active); in [8], > 150 µM (not active); in series [9], 30.3 µM (active).

For `Cc1ccc(-n2c3c(c(=O)[nH]c2=O)C(C(F)(F)F)(C(F)(F)F)NC(=O)N3)cc1`, the AC50 in series [4] (read-out: AC50) was 39.8 µM (inconclusive); in series [5] it was 20 µM (inconclusive). Regarding `COc1ccccc1C(=O)Nc1ccccc1N1CCN(C(=O)c2ccc(Cl)cc2)CC1`, the CC50 in series [6] is 26.5 µM (active). In the case of `Cc1cc(NC(=O)c2cc(C)on2)n(-c2ccccc2)n1`, in series [3], the EC50 is > 260 µM (inactive). In the case of `CC(C)(C)OC(=O)COc1cc(OCC(=O)OC(C)(C)C)c2c(=O)cc(-c3ccccc3)oc2c1`, the CC50 in series [6] is 19.6 µM (active). Also, the AC50 in [5] was 2 µM (inconclusive). Take `CC(=O)Nc1nnc(S(=O)(=O)N2CCN(c3ccc(Cl)cc3[N+](=O)[O-])CC2)s1`: the values for the concentration giving a half-maximal response (EC50) in series [7], in series [8] and in series [9] were 29.1 µM (active), > 150 µM (not active) and > 150 µM (not active), respectively. On to `O=C(COC(=O)c1cn(-c2ccccc2)nc1-c1ccccc1)c1ccc([N+](=O)[O-])cc1`, for which the EC50 in series [3] was > 260 µM (inactive). As to `COc1ccc2[nH]cc(CCNc3ncnc4ccc(-c5ccoc5)cc34)c2c1`, the AC50 in [5] is 0.398 µM (inconclusive). Take `O=C(Nc1ccc([N+](=O)[O-])cc1)C1C(c2ccccc2)=C1c1ccccc1`: the EC50 in [3] is > 260 µM (inactive).

As to `Cn1ncc(Br)c1C(=O)N1CCOCC1`, the EC50 in series [3] is > 260 µM (inactive). Consider `COCCn1nc2cc(C(=O)NCc3cc(C(F)(F)F)cc(C(F)(F)F)c3)ccc2c1OC`, for which the AC50 in [4] (read-out: AC50) was 3.16 µM (inconclusive). For `CC[C@H](C)/C=C(C)/C=C/C(=O)Cc1cc(O)c(C)c(O)c1C=O`, the EC50 in series [3] is 27.5 µM (active).

On to `COc1ccc(CNS(=O)(=O)c2cc(CN3C(=O)c4cccnc4C3=O)ccc2OC)cc1`, for which the EC50 in [3] is > 260 µM (inactive). In the case of `CC(=O)[C@@]1(O)CC[C@H]2[C@H]3C[C@@H](C)C4=CC(=O)C=C[C@]4(C)[C@@]3(F)[C@@H](O)C[C@]21C`, the concentration at half-maximal activity (AC50) in [5] was 12.6 µM (inconclusive). In the case of `CC(C)SC1=NC(/C=C/c2ccc(Cl)cc2Cl)=CC(C)(C)N1`, the EC50 in [3] is 38.9 µM (active). As for `COc1cccc(-c2ccc(SCC(=O)c3ccccc3)nn2)c1`, in [6], the CC50 is 35.2 µM (active). As to `Cc1ccc(S(=O)(=O)NCC(=O)OCC(=O)N2N=C(c3ccc(Cl)cc3)CC2c2ccco2)cc1C` (stereo not given), the EC50 was 18.6 µM (active) in [7], 22.4 µM (active) in series [8] and 61 µM (active) in series [9]. As to `Cc1c(C(=O)NCCN(C)C)oc2ccc(S(=O)(=O)N3CCCC3)cc12`, in series [3], the EC50 is > 260 µM (inactive).

Turning to `N#Cc1c(F)cccc1N1CCOCC1`, the half-maximal cytotoxic concentration (CC50) in series [6] is 23.6 µM (active). For `Cc1nc2ccccc2c(N)c1C(=O)/C=C/c1ccccc1`, the CC50 in [6] is 9.1 µM (active).

With `COc1cc(/C=C/C(=O)N2CCOCC2)ccc1OCc1ccccc1`, the EC50 in [3] is > 260 µM (inactive). Still for that read-out and setting: the figure for `Cc1cccc2cc(CN(Cc3ccco3)C(c3nnnn3CCc3ccccc3)C(C)C)c(O)nc12` (stereo not given) is 70.3 µM (active). Turning to `Cn1c(-c2ccc(F)cc2)cnc1NCc1cccc(F)c1`, the concentration at half-maximal activity (AC50) in series [5] is 39.8 µM (inconclusive).

Turning to `CC(NC(=O)Cn1c(=O)[nH]c2ccsc2c1=O)C12CC3CC(CC(C3)C1)C2` (stereo not given), the EC50 in series [7], in series [8] and in [9] was > 150 µM (not active) each time. Take `c1ccc(Nc2nc(N3CCCCC3)nc(N3CCCCC3)n2)cc1`: the half-maximal effective concentration (EC50) in [7] was 11.7 µM (active); in series [8], > 150 µM (not active); in [9] it was 33.9 µM (active). With `CN(C)C(=O)c1ccc(-c2ccc3ncnc(N(C)C)c3c2)cc1`, in series [5], the AC50 is 1.26 µM (inconclusive). As for `CC(=O)OCc1c(C(F)(F)F)nn(C)c1Sc1ccccc1`, the AC50 in [5] is 28.2 µM (inconclusive). On the same count and under the same terms, the figure for `COC(=O)[C@@H]1CC[C@H](C)[C@@H](c2ccc(C)cc2)N1C(=O)c1ccc(/C=N\OCC[C@@H]2C=C[C@H](OC(C)=O)[C@H](COC(C)=O)O2)cc1` is 3.98 µM (inconclusive). Turning to `CCOC(=O)N1CCN(S(=O)(=O)c2cc(Cl)c(OC)cc2Cl)CC1`, in [3], the EC50 was > 260 µM (inactive).

For `COC(=O)c1c(C)nc(O)nc1SCc1cccc2ccccc12`, the 50% cytotoxic concentration (CC50) in [6] is > 50 µM (active).

`O=C(Nc1cccc(F)c1)N1CCC2(CC1)CCN(C(=O)Oc1ccccc1)CC2`: in series [5], the concentration at half-maximal activity (AC50) was 39.8 µM (inconclusive). In the case of `COc1ccc(CN2CC(C(=O)NCCCN3CCOCC3)CC2=O)cc1` (stereo not given), the EC50 in series [3] is > 260 µM (inactive).

Take `CCS(=O)(=O)Nc1ccc2[nH]c(O)nc2c1`: in series [3], the EC50 was > 260 µM (inactive). `O=C(Nc1ccsc1C(=O)O)c1cccc(Oc2ccccc2)c1`: the cytotoxic concentration (CC50) in [6] was 18.3 µM (active). Turning to `CC(C)c1ccc(/C=N/NC(=O)c2cccc(Cl)c2)cc1`, the EC50 in series [10] is 43.1 µM (active). For the same compound, the AC50 in [11] was 2.88 µM (active). Turning to `CC(/C=C/c1ccc(N(C)C)cc1)=N/NC1=NC(=O)CC(C(=O)Nc2ccc(Cl)cc2)S1` (stereo not given), the EC50 in series [7] was 2.94 µM (active); in series [8], > 150 µM (not active); in series [9] it was 8.65 µM (active). With `Cc1ccc(/C=N/NC2=NC(=O)CS2)o1`, the half-maximal cytotoxic concentration (CC50) in series [6] is 21.5 µM (active). `C[N+]1(C)C[C@@H](O)C[C@@H]1C(=O)[O-]` [BETONICINE]: the AC50 entry in series [4] is “inconclusive”.

The EC50 is the midpoint of the concentration-response curve. As usually defined, the AC50 is the concentration at which the activity in the assay is half-maximal. The term CC50 denotes the concentration at which the toxic effect on the cells reaches its halfway point.
